Experimental data taken from ChEMBL document CHEMBL3862012, “Methylene versus carbonyl bridge in the structure of new tubulin polymerization inhibitors with tricyclic A-rings” (Bioorg Med Chem, 2016).

Experiments:
[1] = Inhibition of sheep brain tubulin polymerization by DAPI staining-based fluorimetric method; design: species or system Ovis aries
[2] = Cytotoxicity against human K562 cells assessed as growth inhibition at 10 uM after 48 hrs by SRB assay relative to control; type: functional; conditions: K562, 48 h, read-out: GI
[3] = Cytotoxicity against human MOLT4 cells assessed as growth inhibition at 10 uM after 48 hrs by SRB assay relative to control; type: functional; conditions: MOLT-4, 48 h, read-out: GI
[4] = Cytotoxicity against human RPMI8226 cells assessed as growth inhibition at 10 uM after 48 hrs by SRB assay relative to control; type: functional; conditions: RPMI-8226, 48 h, read-out: GI
[5] = Cytotoxicity against human SR cells assessed as growth inhibition at 10 uM after 48 hrs by SRB assay relative to control; type: functional; conditions: read-out: GI
[6] = Cytotoxicity against human HOP92 cells assessed as growth inhibition at 10 uM after 48 hrs by SRB assay relative to control; type: functional; conditions: HOP-92, 48 h, read-out: GI
[7] = Cytotoxicity against human NCI-H226 cells assessed as growth inhibition at 10 uM after 48 hrs by SRB assay relative to control; type: functional; conditions: NCI-H226, 48 h, read-out: GI
[8] = Cytotoxicity against human SNB19 cells assessed as growth inhibition at 10 uM after 48 hrs by SRB assay relative to control; type: functional; conditions: SNB-19, 48 h, read-out: GI
[9] = Cytotoxicity against human MALME-3M cells assessed as growth inhibition at 10 uM after 48 hrs by SRB assay relative to control; type: functional; conditions: read-out: GI
[10] = Cytotoxicity against human SK-MEL-2 cells assessed as growth inhibition at 10 uM after 48 hrs by SRB assay relative to control; type: functional; conditions: SK-MEL-2, 48 h, read-out: GI
[11] = Cytotoxicity against human SK-MEL-5 cells assessed as growth inhibition at 10 uM after 48 hrs by SRB assay relative to control; type: functional; conditions: SK-MEL-5, 48 h, read-out: GI
[12] = Cytotoxicity against human UACC257 cells assessed as growth inhibition at 10 uM after 48 hrs by SRB assay relative to control; type: functional; conditions: UACC-257, 48 h, read-out: GI
[13] = Cytotoxicity against human IGROV1 cells assessed as growth inhibition at 10 uM after 48 hrs by SRB assay relative to control; type: functional; conditions: IGROV-1, 48 h, read-out: GI
[14] = Cytotoxicity against human NCI-ADR-RES cells assessed as growth inhibition at 10 uM after 48 hrs by SRB assay relative to control; type: functional; conditions: read-out: GI
[15] = Cytotoxicity against human SKOV3 cells assessed as growth inhibition at 10 uM after 48 hrs by SRB assay relative to control; type: functional; conditions: SK-OV-3, 48 h, read-out: GI
[16] = Cytotoxicity against human Caki1 cells assessed as growth inhibition at 10 uM after 48 hrs by SRB assay relative to control; type: functional; conditions: CAKI-1, 48 h, read-out: GI
[17] = Cytotoxicity against human SN12C cells assessed as growth inhibition at 10 uM after 48 hrs by SRB assay relative to control; type: functional; conditions: read-out: GI
[18] = Cytotoxicity against human PC3 cells assessed as growth inhibition at 10 uM after 48 hrs by SRB assay relative to control; type: functional; conditions: PC-3, 48 h, read-out: GI
[19] = Cytotoxicity against human DU145 cells assessed as growth inhibition at 10 uM after 48 hrs by SRB assay relative to control; type: functional; conditions: DU-145, 48 h, read-out: GI
[20] = Cytotoxicity against human MDA-MB-468 cells assessed as growth inhibition at 10 uM after 48 hrs by SRB assay relative to control; type: functional; conditions: MDA-MB-468, 48 h, read-out: GI
[21] = Cytotoxicity against human CCRF-CEM cells assessed as growth inhibition after 48 hrs by SRB assay; type: functional
[22] = Cytotoxicity against human HL-60(TB) cells assessed as growth inhibition after 48 hrs by SRB assay; type: functional; conditions: HL-60, 48 h
[23] = Cytotoxicity against human K562 cells assessed as growth inhibition after 48 hrs by SRB assay; type: functional; conditions: K562, 48 h
[24] = Cytotoxicity against human SR cells assessed as growth inhibition after 48 hrs by SRB assay; type: functional
[25] = Cytotoxicity against human NCI-H460 cells assessed as growth inhibition after 48 hrs by SRB assay; type: functional; conditions: NCI-H460, 48 h
[26] = Cytotoxicity against human NCI-H522 cells assessed as growth inhibition after 48 hrs by SRB assay; type: functional; conditions: NCI-H522, 48 h
[27] = Cytotoxicity against human HCC2998 cells assessed as growth inhibition after 48 hrs by SRB assay; type: functional; conditions: HCC 2998, 48 h
[28] = Cytotoxicity against human HT-29 cells assessed as growth inhibition after 48 hrs by SRB assay; type: functional; conditions: HT-29, 48 h
[29] = Cytotoxicity against human SW620 cells assessed as growth inhibition after 48 hrs by SRB assay; type: functional; conditions: SW-620, 48 h
[30] = Cytotoxicity against human SF268 cells assessed as growth inhibition after 48 hrs by SRB assay; type: functional; conditions: SF-268, 48 h
[31] = Cytotoxicity against human SF295 cells assessed as growth inhibition after 48 hrs by SRB assay; type: functional; conditions: SF-295, 48 h
[32] = Cytotoxicity against human SNB75 cells assessed as growth inhibition after 48 hrs by SRB assay; type: functional; conditions: SNB-75, 48 h
[33] = Cytotoxicity against human SK-MEL-28 cells assessed as growth inhibition after 48 hrs by SRB assay; type: functional; conditions: SK-MEL-28, 48 h
[34] = Cytotoxicity against human UACC62 cells assessed as growth inhibition after 48 hrs by SRB assay; type: functional; conditions: UACC-62, 48 h
[35] = Cytotoxicity against human LOXIMVI cells assessed as growth inhibition after 48 hrs by SRB assay; type: functional; conditions: LOX IMVI
[36] = Cytotoxicity against human SK-MEL-5 cells assessed as growth inhibition after 48 hrs by SRB assay; type: functional; conditions: SK-MEL-5, 48 h
[37] = Cytotoxicity against human OVCAR3 cells assessed as growth inhibition after 48 hrs by SRB assay; type: functional; conditions: OVCAR-3, 48 h
[38] = Cytotoxicity against human OVCAR8 cells assessed as growth inhibition after 48 hrs by SRB assay; type: functional; conditions: OVCAR-8, 48 h
[39] = Cytotoxicity against human NCI-ADR-RES cells assessed as growth inhibition after 48 hrs by SRB assay; type: functional
[40] = Cytotoxicity against human RXF393 cells assessed as growth inhibition after 48 hrs by SRB assay; type: functional; conditions: RXF 393, 48 h
[41] = Cytotoxicity against human UO31 cells assessed as growth inhibition after 48 hrs by SRB assay; type: functional; conditions: UO-31, 48 h
[42] = Cytotoxicity against human ACHN cells assessed as growth inhibition after 48 hrs by SRB assay; type: functional
[43] = Cytotoxicity against human PC3 cells assessed as growth inhibition after 48 hrs by SRB assay; type: functional; conditions: PC-3, 48 h

With `COc1ccc(CN2c3ccccc3CCc3ccccc32)cc1F` the IC50 [1] was 6400 nM, the inhibition of growth at 10 µM [2] was 94% and the inhibition of growth at 10 µM [3] was 84%. For the same compound, the inhibition of growth at 10 µM [4] was 91%, the inhibition of growth at 10 µM [5] was 88% and the inhibition of growth at 10 µM [6] was 64%. For the same compound, the inhibition of growth at 10 µM [7] was 47%, the inhibition of growth at 10 µM [8] was 61% and the inhibition of growth at 10 µM [9] was 16%. The inhibition of growth at 10 µM [10] was 73%, the inhibition of growth at 10 µM [11] was 80% and the inhibition of growth at 10 µM [12] was 38%. It also gave an inhibition of growth at 10 µM [13] of 48%, an inhibition of growth at 10 µM [14] of 89% and an inhibition of growth at 10 µM [15] of 62%. It also gave an inhibition of growth at 10 µM [16] of 70%, an inhibition of growth at 10 µM [17] of 61% and an inhibition of growth at 10 µM [18] of 76%. It also gave an inhibition of growth at 10 µM [19] of 91%, an inhibition of growth at 10 µM [20] of 96% and a GI50 [21] of 515 nM. It also gave a GI50 [22] of 241 nM, a GI50 [23] of 402 nM and a GI50 [24] of 463 nM. It also gave a GI50 [25] of 419 nM, a GI50 [26] of 609 nM and a GI50 [27] of 8900 nM. For the same compound, the GI50 [28] was 319 nM, the GI50 [29] was 386 nM and the GI50 [30] was 660 nM. For the same compound, the GI50 [31] was 333 nM, the GI50 [32] was 277 nM and the GI50 [33] was 820 nM. The GI50 [34] was 804 nM, the GI50 [35] was 725 nM and the GI50 [36] was 522 nM. It also gave a GI50 [37] of 285 nM, a GI50 [38] of 880 nM and a GI50 [39] of 456 nM. It also gave a GI50 [40] of 312 nM, a GI50 [41] of 814 nM and a GI50 [42] of 604 nM. For the same compound, the GI50 [43] was 489 nM.
